Measured values taken from patent publication US20030055070A1, “Phosphodiesterase type 5 (PDE5) inhibitors for the treatment of selective serotonin reuptake inhibitor (SSR) induced sexual dysfunction” (priority 1999, published 2003).

Columns and labels:
[1] = tested on: SSRI induced sexual dysfunction; settings: four patients (two men, two women); all reported; cited from earlier work
[2] = tested on: SSRI induced sexual dysfunction in men and women; settings: nine men, five women; twelve on SSRIs, two on mirtazapine; all patients; cited from earlier work
men with ED = assay: Retrospective subanalysis of 10 double-blind, placebo-controlled sildenafil citrate studies, IIEF questionnaire; patients without SSRIs; assay type: in vivo, human
Procedure: (§1) A retrospective analysis of combined data from 10 Phase II/III double-blind, placebo-controlled, fixed- and flexible-dose trials identified a subgroup of men with ED who were receiving 5-200 mg of sildenafil citrate (S) or placebo (P) and taking concomitant SSRIs. Studies of sildenafil citrate in various populations have been reported. For example, Goldstein et al. report the results of two sildenafil citrate studies in men. In one study 532 men were treated with oral sildenafil citrate (25, 50 or 100 mg) or placebo over 24 weeks to study dose-response. In the second study 329 men were treated with sildenafil citrate or placebo with dose escalation to 100 mg based on efficacy and tolerance. Additional studies may be found in the following references: Derry et al. (1998), Dinsmore et al. (1999), Goldstein et al. (1998), Padma-Nathan et al. (1998) and Rendell et al. (1999). Analysis of efficacy (ANCOVA) included responses to several questions including question 9 (Q9; frequency of ejaculation) and question 10 (Q10; frequency of orgasm) of the International Index of Erectile Function. In the International Index of Erectile Function, sexual activity includes intercourse, caressing, foreplay and masturbation; sexual intercourse is defined as vaginal penetration of a partner by the respondent; sexual stimulation includes situations like foreplay with a partner, looking at erotic pictures, etc.; ejaculation: the ejection of semen from the penis (or the feeling of this). Question 9 is, “Over the past 4 weeks, when you had sexual stimulation or intercourse how often did you ejaculate?” Question 10 is, “Over the past 4 weeks, when you had sexual stimulation or intercourse how often did you have the feeling of orgasm (with or without ejaculation)? Scores are based on a scale from 1 (almost never or never) to 5 (almost always or always), with 0 representing “No sexual stimulation/intercourse.” Each question was scored from 0 to 5, with lower scores indicating greater sexual dysfunction. Results are expressed as mean baseline score's standard error of mean, (±SEM) and mean change from baseline (±SEM) at the end of treatment (6 to 24 weeks).
(§2) This was a retrospective subanalysis of combined data from 10 double-blind, placebo-controlled, fixed- and flexible-dose studies with sildenafil citrate for the treatment of ED. The subanalysis was conducted to assess whether treatment with sildenafil citrate can alleviate symptoms of sexual dysfunction in men taking SSRIs. The studies lasted for 6 to 24 weeks and dosing of the study drug ranged from 5 mg to 200 mg of sildenafil citrate or matching placebo. Patients were instructed to take medication approximately 1 hour before anticipated sexual activity but not more than once daily.
(§3) A total of 3414 patients were randomized to treatment. The main inclusion criteria were as follows: Men aged 18 years and older; Clinical diagnosis of ED of more than 6 months' duration; Stable relationship with a female partner for at least 6 months prior to the study; and written informed consent. The main exclusion criteria were as follows: Penile anatomical deformities; Major illness or uncontrolled psychiatric disorder; Concomitant treatment with nitrates or nitric oxide donors, estrogens, androgens, or anticoagulants. Other treatments for sexual dysfunction were not allowed during the study.
Efficacy was assessed at the end of treatment (6 to 24 weeks) by responses to the validated 15-item International Index of Erectile Function (IIEF) questionnaire. Rosen et al. (1997) “The International Index of Erectile Function (IIEF): a Multidimensional Scale for Assessment of Erectile Dysfunction,” Urology 49:822-830. Responses were graded on a scale of 1 (“almost never/never”) to 5 (“almost always/always”), with a score of 0 indicating no sexual activity. Efficacy results were evaluated using analysis of covariance (ANCOVA) and were expressed as mean scores.

[3] = tested on: SSRI-induced sexual side effects; settings: case studies of patients taking SSRIs; cited from earlier work
[4] = tested on: men with ED taking concomitant SSRIs; assay: Retrospective subanalysis of 10 double-blind, placebo-controlled sildenafil citrate studies, IIEF questionnaire; patients taking concomitant SSRIs; assay type: in vivo, human
Procedure: as §1, §2, §3
Efficacy was assessed at the end of treatment (6 to 24 weeks) by responses to the validated 15-item International Index of Erectile Function (IIEF) questionnaire. Rosen et al. (1997) “The International Index of Erectile Function (IIEF): a Multidimensional Scale for Assessment of Erectile Dysfunction,” Urology 49:822-830. Responses were graded on a scale of 1 (“almost never/never”) to 5 (“almost always/always”), with a score of 0 indicating no sexual activity. Efficacy results were evaluated using analysis of covariance (ANCOVA) and were expressed as mean scores. […]

[5] = no SSRI, end of treatment (6 to 24 weeks), 5-200 mg, scale 0-5
[6] = no SSRI, p<0.0001 versus placebo
[7] = without SSRIs, 5-200 mg, end of treatment (6 to 24 weeks), scale 0-5
[8] = without SSRIs, baseline, scale 0-5
[9] = with SSRIs, 5-200 mg, end of treatment (6 to 24 weeks), scale 0-5
[10] = with SSRIs, baseline, scale 0-5

Which results are given for `CCCc1nn(C)c2c(=O)[nH]c(-c3cc(S(=O)(=O)N4CCN(C)CC4)ccc3OCC)nc12.O=C(O)CC(O)(CC(=O)O)C(=O)O` [Sildenafil citrate, 1-[[3-(6,7-dihydro-1-methyl-7-oxo-3-propyl-1H-pyrazolo[4,3-d]pyrimidin-5-yl)-4-ethoxyphenyl]sulfonyl]-4-methylpiperazine citrate]?
Effect on SSRI induced sexual dysfunction, in words [1]: rapid reversal of SSRI induced sexual dysfunction; Sexual functioning, in words [2]: statistically significant improvement; Improvement of score, erection confidence (Question 15) (men with ED; no SSRI, baseline to endpoint): 76%; Improvement of score, erection firmness (Question 2) (men with ED; no SSRI, baseline to endpoint): 78%; Improvement of score, erection frequency (Question 1) (men with ED; no SSRI, baseline to endpoint): 60%; Improvement of score, maintenance ability (Question 5) (men with ED; no SSRI, baseline to endpoint): 117%; Increase of mean score, intercourse enjoyment (Question 8) (men with ED; no SSRI, baseline to endpoint): 70%; Increase of mean score, intercourse frequency (Question 6) (men with ED; no SSRI, baseline to endpoint): 57%; Increase of mean score, intercourse satisfaction (Question 7) (men with ED; no SSRI, baseline to endpoint): 93%; Increase of mean score, overall satisfaction with sex life (Question 13) (men with ED; no SSRI, baseline to endpoint): 68%; Increase of mean score, satisfaction with the relationship (Question 14) (men with ED; no SSRI, baseline to endpoint): 40%; IIEF Question 1 erection frequency, baseline mean score (men with ED; no SSRI, baseline, scale 0-5): 2.27 ± 0.04; IIEF Question 2 erection firmness, baseline mean score (men with ED; no SSRI, baseline, scale 0-5): 1.97 ± 0.03; IIEF Question 5 maintenance ability, baseline mean score (men with ED; no SSRI, baseline, scale 0-5): 1.54 ± 0.03; IIEF Question 6 intercourse frequency, baseline mean score (men with ED; no SSRI, baseline, scale 0-5): 2.00 ± 0.03; IIEF Question 7 intercourse satisfaction, baseline mean score (men with ED; no SSRI, baseline, scale 0-5): 1.75 ± 0.03; IIEF Question 8 intercourse enjoyment, baseline mean score (men with ED; no SSRI, baseline, scale 0-5): 1.86 ± 0.03; IIEF Question 13 overall satisfaction, baseline mean score (men with ED; no SSRI, baseline, scale 0-5): 2.00 ± 0.02; IIEF Question 14 relationship satisfaction, baseline mean score (men with ED; no SSRI, baseline, scale 0-5): 2.63 ± 0.03; IIEF Question 15 erection confidence, baseline mean score (men with ED; no SSRI, baseline, scale 0-5): 1.76 ± 0.02; Increase of mean score from mean baseline score, ability to achieve an erection (Question 3) (men with ED; no SSRI, end of treatment): 80%; Increase of mean score from mean baseline score, ability to maintain an erection (Question 4) (men with ED; no SSRI, end of treatment): 107%; IIEF Question 1 erection frequency, endpoint mean score (men with ED; [5]): 3.63 ± 0.04; IIEF Question 2 erection firmness, endpoint mean score (men with ED; [5]): 3.50 ± 0.04; IIEF Question 5 maintenance ability, endpoint mean score (men with ED; [5]): 3.35 ± 0.04; IIEF Question 6 intercourse frequency, endpoint mean score (men with ED; [5]): 3.13 ± 0.03; IIEF Question 7 intercourse satisfaction, endpoint mean score (men with ED; [5]): 3.38 ± 0.04; IIEF Question 8 intercourse enjoyment, endpoint mean score (men with ED; [5]): 3.16 ± 0.03; IIEF Question 13 overall satisfaction, endpoint mean score (men with ED; [5]): 3.36 ± 0.03; IIEF Question 14 relationship satisfaction, endpoint mean score (men with ED; [5]): 3.68 ± 0.03; IIEF Question 15 erection confidence, endpoint mean score (men with ED; [5]): 3.10 ± 0.03; Frequency of ejaculation (Question 9), mean score versus placebo, in words (men with ED; [6]): increased significantly; Frequency of orgasm (Question 10), mean score versus placebo, in words (men with ED; [6]): increased significantly; Important aspects of sexual function, in words (men with ED; patients with ED without concomitant SSRI): significantly improved; IIEF Q9 frequency of ejaculation, mean change from baseline ± SEM (men with ED; [7]): 0.90 ± 0.04; IIEF Q10 frequency of orgasm, mean change from baseline ± SEM (men with ED; [7]): 0.93 ± 0.04; IIEF Q9 frequency of ejaculation, mean baseline score ± SEM (men with ED; [8]): 2.74 ± 0.04; IIEF Q10 frequency of orgasm, mean baseline score ± SEM (men with ED; [8]): 2.65 ± 0.04; Response to treatment, in words [3]: responding well; Frequency of orgasm (Question 10), effect versus placebo, in words ([4]; concomitant SSRI, p<0.01 versus placebo, citrate): significantly improved; Frequency of ejaculation (Question 9), effect versus placebo, in words ([4]; concomitant SSRI, p<0.02 versus placebo, citrate): significantly improved; Important aspects of sexual function, in words ([4]; patients with ED with concomitant SSRI): significantly improved; IIEF Q9 frequency of ejaculation, mean change from baseline ± SEM [4, 9]: 1.16 ± 0.25; IIEF Q10 frequency of orgasm, mean change from baseline ± SEM [4, 9]: 1.34 ± 0.27; IIEF Q9 frequency of ejaculation, mean baseline score ± SEM [4, 10]: 2.42 ± 0.23; IIEF Q10 frequency of orgasm, mean baseline score ± SEM [4, 10]: 2.24 ± 0.22
